The supplement of paper PMC10307832

How the values were obtained:
Assay in all cases: relative viability (nuclei count vs DMSO), 5 days (fraction); higher = more cells survive
Ruboxistaurin + Olaparib = compound: CN(C)C[C@@H]1CCn2cc(c3ccccc32)C2=C(C(=O)NC2=O)c2cn(c3ccccc23)CCO1 [Ruboxistaurin] + O=C(c1cc(Cc2n[nH]c(=O)c3ccccc23)ccc1F)N1CCN(C(=O)C2CC2)CC1 [Olaparib] (partner 8 µM)
Procedure, shortened: (§1)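 Nuclei were stained with Hoechst during a one-step fixation (final 0.05% Triton X-100, 1% formaldehyde, 1 ug/ml Hoechst) carried out 5 days after dosing, then counted on 4× images. The cells, lung cancer lines in 1536-well plates, had been dosed by pin tool the day after seeding with one drug alone or a fixed anchor-drug dose plus five library-drug doses (not always all listed) in √10 steps. Relative viability is the nuclei count in treated wells divided by that in vehicle wells, and each value is the median of duplicate plates.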

[1] = compound: CN(C)C[C@@H]1CCn2cc(c3ccccc32)C2=C(C(=O)NC2=O)c2cn(c3ccccc23)CCO1 [Ruboxistaurin] + COc1cc2c(Oc3ccc(NC(=O)C4(C(=O)Nc5ccc(F)cc5)CC4)cc3F)ccnc2cc1OCCCN1CCOCC1 [Foretinib] (partner 0.25 µM)
Procedure, shortened: as §1

[2] = compound: CN(C)C[C@@H]1CCn2cc(c3ccccc32)C2=C(C(=O)NC2=O)c2cn(c3ccccc23)CCO1 [Ruboxistaurin] + CC1(C)CCC(c2ccc(Cl)cc2)=C(CN2CCN(c3ccc(C(=O)NS(=O)(=O)c4ccc(N[C@H](CCN5CCOCC5)CSc5ccccc5)c(S(=O)(=O)C(F)(F)F)c4)cc3)CC2)C1 [Navitoclax] (partner 0.5 µM)
Procedure, shortened: as §1

[3] = compound: CN(C)C[C@@H]1CCn2cc(c3ccccc32)C2=C(C(=O)NC2=O)c2cn(c3ccccc23)CCO1 [Ruboxistaurin] + Cc1nc(Nc2ncc(C(=O)Nc3c(C)cccc3Cl)s2)cc(N2CCN(CCO)CC2)n1 [Dasatinib] (partner 0.075 µM)
Procedure, shortened: as §1

[4] = compound: CN(C)C[C@@H]1CCn2cc(c3ccccc32)C2=C(C(=O)NC2=O)c2cn(c3ccccc23)CCO1 [Ruboxistaurin] + Nc1ncn([C@H]2C[C@H](O)[C@@H](CO)O2)c(=O)n1 [Decitabine] (partner 2 µM)
Procedure, shortened: as §1

NCI-H647
relative viability (Ruboxistaurin + Olaparib; first compound 0.08 µM): 0.575 | relative viability (Ruboxistaurin + Olaparib; first compound 0.8 µM): 0.563 | relative viability (Ruboxistaurin + Olaparib; first compound 2.53 µM): 0.912 | relative viability (Ruboxistaurin + Olaparib; first compound 8 µM): 0.562 | relative viability ([1]; first compound 0.08 µM): 1.27 | relative viability ([1]; first compound 0.8 µM): 0.832 | relative viability ([1]; first compound 2.53 µM): 1.19 | relative viability ([1]; first compound 8 µM): 1.32 | relative viability ([2]; first compound 0.08 µM): 1.23 | relative viability ([2]; first compound 0.8 µM): 1 | relative viability ([2]; first compound 2.53 µM): 1.17 | relative viability ([2]; first compound 8 µM): 1.2 | relative viability ([3]; first compound 0.08 µM): 0.185 | relative viability ([3]; first compound 0.8 µM): 0.127 | relative viability ([3]; first compound 2.53 µM): 0.149 | relative viability ([3]; first compound 8 µM): 0.154 | relative viability ([4]; first compound 0.08 µM): 0.442 | relative viability ([4]; first compound 0.8 µM): 0.33 | relative viability ([4]; first compound 2.53 µM): 0.373 | relative viability ([4]; first compound 8 µM): 0.547

A-427
relative viability (Ruboxistaurin + Olaparib; first compound 0.08 µM): 0.728 | relative viability (Ruboxistaurin + Olaparib; first compound 0.8 µM): 0.672 | relative viability (Ruboxistaurin + Olaparib; first compound 2.53 µM): 0.558 | relative viability (Ruboxistaurin + Olaparib; first compound 8 µM): 0.534 | relative viability ([1]; first compound 0.08 µM): 1.01 | relative viability ([1]; first compound 0.8 µM): 0.952 | relative viability ([1]; first compound 2.53 µM): 0.928 | relative viability ([1]; first compound 8 µM): 0.659 | relative viability ([2]; first compound 0.08 µM): 0.947 | relative viability ([2]; first compound 0.8 µM): 0.816 | relative viability ([2]; first compound 2.53 µM): 0.831 | relative viability ([2]; first compound 8 µM): 0.752 | relative viability ([3]; first compound 0.08 µM): 0.677 | relative viability ([3]; first compound 0.8 µM): 0.639 | relative viability ([3]; first compound 2.53 µM): 0.675 | relative viability ([3]; first compound 8 µM): 0.374 | relative viability ([4]; first compound 0.08 µM): 0.605 | relative viability ([4]; first compound 0.8 µM): 0.527 | relative viability ([4]; first compound 2.53 µM): 0.564 | relative viability ([4]; first compound 8 µM): 0.548

LXF-289
relative viability (Ruboxistaurin + Olaparib; first compound 0.08 µM): 1.08 | relative viability (Ruboxistaurin + Olaparib; first compound 0.8 µM): 1.01 | relative viability (Ruboxistaurin + Olaparib; first compound 2.53 µM): 1.07 | relative viability (Ruboxistaurin + Olaparib; first compound 8 µM): 1.18 | relative viability ([1]; first compound 0.08 µM): 1.01 | relative viability ([1]; first compound 0.8 µM): 0.895 | relative viability ([1]; first compound 2.53 µM): 0.966 | relative viability ([1]; first compound 8 µM): 1.04 | relative viability ([2]; first compound 0.08 µM): 0.967 | relative viability ([2]; first compound 0.8 µM): 0.928 | relative viability ([2]; first compound 2.53 µM): 0.931 | relative viability ([2]; first compound 8 µM): 1.04 | relative viability ([3]; first compound 0.08 µM): 0.243 | relative viability ([3]; first compound 0.8 µM): 0.206 | relative viability ([3]; first compound 2.53 µM): 0.273 | relative viability ([3]; first compound 8 µM): 0.22 | relative viability ([4]; first compound 0.08 µM): 0.377 | relative viability ([4]; first compound 0.8 µM): 0.338 | relative viability ([4]; first compound 2.53 µM): 0.38 | relative viability ([4]; first compound 8 µM): 0.418

NCI-H727
relative viability (Ruboxistaurin + Olaparib; first compound 0.08 µM): 0.625 | relative viability (Ruboxistaurin + Olaparib; first compound 0.8 µM): 0.7 | relative viability (Ruboxistaurin + Olaparib; first compound 2.53 µM): 0.722 | relative viability (Ruboxistaurin + Olaparib; first compound 8 µM): 0.521 | relative viability ([1]; first compound 0.08 µM): 1.15 | relative viability ([1]; first compound 0.8 µM): 0.718 | relative viability ([1]; first compound 2.53 µM): 0.84 | relative viability ([1]; first compound 8 µM): 0.645 | relative viability ([2]; first compound 0.08 µM): 0.46 | relative viability ([2]; first compound 0.8 µM): 0.394 | relative viability ([2]; first compound 2.53 µM): 0.458 | relative viability ([2]; first compound 8 µM): 0.338 | relative viability ([3]; first compound 0.08 µM): 0.474 | relative viability ([3]; first compound 2.53 µM): 0.296 | relative viability ([3]; first compound 8 µM): 0.324 | relative viability ([4]; first compound 0.08 µM): 0.862 | relative viability ([4]; first compound 0.8 µM): 0.839 | relative viability ([4]; first compound 2.53 µM): 0.976 | relative viability ([4]; first compound 8 µM): 0.639

NCI-H1437
relative viability (Ruboxistaurin + Olaparib; first compound 0.08 µM): 0.661 | relative viability (Ruboxistaurin + Olaparib; first compound 0.8 µM): 0.613 | relative viability (Ruboxistaurin + Olaparib; first compound 2.53 µM): 0.666 | relative viability (Ruboxistaurin + Olaparib; first compound 8 µM): 0.712 | relative viability ([1]; first compound 0.08 µM): 1.29 | relative viability ([1]; first compound 0.8 µM): 1.21 | relative viability ([1]; first compound 2.53 µM): 1.37 | relative viability ([1]; first compound 8 µM): 1.38 | relative viability ([2]; first compound 0.08 µM): 1.11 | relative viability ([2]; first compound 0.8 µM): 1.05 | relative viability ([2]; first compound 2.53 µM): 1.15 | relative viability ([2]; first compound 8 µM): 1.11 | relative viability ([3]; first compound 0.08 µM): 0.438 | relative viability ([3]; first compound 0.8 µM): 0.367 | relative viability ([3]; first compound 2.53 µM): 0.326 | relative viability ([3]; first compound 8 µM): 0.392 | relative viability ([4]; first compound 0.08 µM): 0.571 | relative viability ([4]; first compound 0.8 µM): 0.621 | relative viability ([4]; first compound 2.53 µM): 0.622 | relative viability ([4]; first compound 8 µM): 0.702

RERF-LC-KJ
relative viability (Ruboxistaurin + Olaparib; first compound 0.08 µM): 0.938 | relative viability (Ruboxistaurin + Olaparib; first compound 0.8 µM): 0.804 | relative viability (Ruboxistaurin + Olaparib; first compound 2.53 µM): 0.942 | relative viability (Ruboxistaurin + Olaparib; first compound 8 µM): 0.709 | relative viability ([1]; first compound 0.08 µM): 0.879 | relative viability ([1]; first compound 0.8 µM): 0.777 | relative viability ([1]; first compound 2.53 µM): 0.864 | relative viability ([1]; first compound 8 µM): 0.869 | relative viability ([2]; first compound 0.08 µM): 1.36 | relative viability ([2]; first compound 0.8 µM): 0.977 | relative viability ([2]; first compound 2.53 µM): 0.881 | relative viability ([2]; first compound 8 µM): 0.833 | relative viability ([3]; first compound 0.08 µM): 0.847 | relative viability ([3]; first compound 0.8 µM): 0.608 | relative viability ([3]; first compound 2.53 µM): 0.833 | relative viability ([3]; first compound 8 µM): 0.652 | relative viability ([4]; first compound 0.08 µM): 0.784 | relative viability ([4]; first compound 0.8 µM): 0.587 | relative viability ([4]; first compound 2.53 µM): 0.743 | relative viability ([4]; first compound 8 µM): 0.682

EPLC-272H
relative viability (Ruboxistaurin + Olaparib; first compound 0.08 µM): 0.846 | relative viability (Ruboxistaurin + Olaparib; first compound 0.8 µM): 0.71 | relative viability (Ruboxistaurin + Olaparib; first compound 2.53 µM): 0.918 | relative viability (Ruboxistaurin + Olaparib; first compound 8 µM): 0.437 | relative viability ([1]; first compound 0.08 µM): 0.853 | relative viability ([1]; first compound 0.8 µM): 0.548 | relative viability ([1]; first compound 2.53 µM): 0.703 | relative viability ([1]; first compound 8 µM): 0.472 | relative viability ([2]; first compound 0.08 µM): 1.28 | relative viability ([2]; first compound 0.8 µM): 0.96 | relative viability ([2]; first compound 2.53 µM): 1.41 | relative viability ([2]; first compound 8 µM): 1.18 | relative viability ([3]; first compound 0.08 µM): 0.354 | relative viability ([3]; first compound 0.8 µM): 0.371 | relative viability ([3]; first compound 2.53 µM): 0.342 | relative viability ([3]; first compound 8 µM): 0.282 | relative viability ([4]; first compound 0.08 µM): 0.473 | relative viability ([4]; first compound 0.8 µM): 0.289 | relative viability ([4]; first compound 2.53 µM): 0.354 | relative viability ([4]; first compound 8 µM): 0.341

NCI-H596
relative viability (Ruboxistaurin + Olaparib; first compound 0.08 µM): 0.545 | relative viability (Ruboxistaurin + Olaparib; first compound 0.8 µM): 0.59 | relative viability (Ruboxistaurin + Olaparib; first compound 2.53 µM): 0.692 | relative viability (Ruboxistaurin + Olaparib; first compound 8 µM): 0.659 | relative viability ([1]; first compound 0.08 µM): 0.817 | relative viability ([1]; first compound 0.8 µM): 0.671 | relative viability ([1]; first compound 2.53 µM): 0.766 | relative viability ([1]; first compound 8 µM): 0.679 | relative viability ([2]; first compound 0.08 µM): 0.962 | relative viability ([2]; first compound 0.8 µM): 0.845 | relative viability ([2]; first compound 2.53 µM): 0.983 | relative viability ([2]; first compound 8 µM): 0.69 | relative viability ([3]; first compound 0.08 µM): 0.65 | relative viability ([3]; first compound 0.8 µM): 0.488 | relative viability ([3]; first compound 2.53 µM): 0.63 | relative viability ([3]; first compound 8 µM): 0.547 | relative viability ([4]; first compound 0.08 µM): 0.978 | relative viability ([4]; first compound 0.8 µM): 0.892 | relative viability ([4]; first compound 2.53 µM): 0.987 | relative viability ([4]; first compound 8 µM): 0.973

NCI-H322M
relative viability (Ruboxistaurin + Olaparib; first compound 0.08 µM): 0.764 | relative viability (Ruboxistaurin + Olaparib; first compound 0.8 µM): 0.675 | relative viability (Ruboxistaurin + Olaparib; first compound 2.53 µM): 0.805 | relative viability (Ruboxistaurin + Olaparib; first compound 8 µM): 0.329 | relative viability ([1]; first compound 0.08 µM): 0.947 | relative viability ([1]; first compound 0.8 µM): 0.922 | relative viability ([1]; first compound 2.53 µM): 0.981 | relative viability ([1]; first compound 8 µM): 0.627 | relative viability ([2]; first compound 0.08 µM): 1.2 | relative viability ([2]; first compound 0.8 µM): 1.09 | relative viability ([2]; first compound 2.53 µM): 1.24 | relative viability ([2]; first compound 8 µM): 1.19 | relative viability ([3]; first compound 0.08 µM): 0.265 | relative viability ([3]; first compound 0.8 µM): 0.267 | relative viability ([3]; first compound 2.53 µM): 0.257 | relative viability ([3]; first compound 8 µM): 0.228 | relative viability ([4]; first compound 0.08 µM): 0.746 | relative viability ([4]; first compound 0.8 µM): 0.656 | relative viability ([4]; first compound 2.53 µM): 0.6 | relative viability ([4]; first compound 8 µM): 0.619
